Measurements: patent US20250326755A1, “CYCLIC QUATERNARY AMMONIUM SALT COMPOUND, AND PREPARATION METHOD THEREFOR AND USE THEREOF” (YICHANG HUMANWELL PHARMACEUTICAL CO., LTD., priority 2022, published 2025)
Structures can show the parent of a compound that is named as a salt. Where two headings read alike, the source gives them in different places.

Experiments:
[1] = test system: sciatic nerve of the rat; assay type: in vivo, SD rats
Experimental: The experimental methods described in the following test examples were standard procedures unless otherwise specified. All experimental animals used in the following test examples were SD rats purchased from Hunan Slac Jingda Experimental Animal Co., Ltd. Other test materials, unless stated otherwise, were purchased from conventional biochemical reagent suppliers.
The compounds listed in Table 1 and levobupivacaine hydrochloride (positive control) were administered to three groups of rats fully acclimated to the experimental environment, with one rat per group.
Solution Preparation: 2 mg/ml Levobupivacaine Hydrochloride Injection: 2.670 ml of 7.5 mg/ml levobupivacaine hydrochloride injection (Batch No. 92S0702) was pipetted into a 10 ml volumetric flask. 0.9% NaCl solution was added until the meniscus was level with the calibration line, and the solution was inverted and mixed thoroughly, to prepare 2 mg/ml levobupivacaine hydrochloride injection. 2 mg/ml Example Compound Solution: 6.6 mg of the example compound was accurately weighed and dissolved in 3.3 ml of 0.9% NaCl solution to prepare a 2 mg/ml example compound solution.
Both the positive control and the example compound were administered to each rat at 2 mg/ml, with an administration volume of 5 ml/kg, in a single injection near the sciatic nerve of the rat. After the administration, the rat was placed on a preheated hot plate (50±0.1° C.) of an intelligent hot plate instrument. […] The maximum thermal latency was controlled at 60 s. […] Any urine or feces on the hot plate was promptly cleaned and dried before subsequent tests.
Thermal latency results were expressed as the maximum proportional effect (MPE), calculated using the following formula.
Wherein: B represented the basal thermal latency of the rats; P was the maximum thermal latency C was the observed thermal latency at the detection time point.
Measurements were considered invalid if the MPE was less than 50% of the maximum proportional effect. If two consecutive measurements yielded an MPE of less than […], the experiment was terminated.

[2] = test system: rat subcutaneous infiltration model; assay: Local anesthetic effect by subcutaneous infiltration, Von Frey needle stimulation of back skin; assay type: in vivo, SD rats
Experimental: After shaving and disinfecting the backs of SD rats (half male and half female) weighing 190-210 grams, a circle with a diameter of approximately 1.5 cm was drawn on one side of the exposed skin. 0.5 mL of a solution containing the drug was subcutaneously injected into the skin in the center. The solution, using physiological saline as the solvent, contained either 2 mg/ml bupivacaine hydrochloride or 1 mg/ml concentration of the compounds listed in Table 2 of the present application. Each group consisted of 10 rats. A Von Frey fiber with a 100-gram force was attached to a needle for local skin stimulation. One minute after drug administration, the rat's response to the stimulus was measured. Testing was conducted at 6 different points within the marked area of drug administration. Skin contraction, avoidance, and other behaviors following stimulation were observed and recorded. Three points in the center and three points around the circle were stimulated, and the number of skin contraction and avoidance behaviors was recorded as N6. […] Each compound was tested on 10 rats.

[3] = 2 mg/ml, 5 ml/kg, single injection near the sciatic nerve of the rat, hot plate 50±0.1° C.
[4] = 1 mg/ml, 0.5 mL subcutaneous injection on the back, 10 rats

| Compound | Duration/h [1, 3] | Onset Time/min [1, 3] | Duration/h [2, 4] | Onset Time/min [2, 4] | Duration/h ([1]; rat, in vivo) | Onset Time/min ([1]; rat, in vivo) | further results |
| --- | --- | --- | --- | --- | --- | --- | --- |
| CCCC[N+]1(CCCCOc2cccc(C(F)(F)F)c2)CCCC[C@H]1C(=O)Nc1c(C)cccc1C (stereo partly drawn) [Compound of Example 28, (2S)-1-Butyl-2-((2,6-dimethylphenyl)carbamoyl)-1-(4-(3-(trifluoromethyl)phenoxy)butyl) piperidine bromide] | 24 to 48 h | 1 min | 48 to 72 h | 1 min |  |  |  |
| Cc1cccc(C)c1NC(=O)[C@@H]1CCCC[N+]1(CCCCOc1ccccc1)CCCC(C)C (stereo partly drawn) [Compound of Example 38, (2S)-2-((2,6-Dimethylphenyl)carbamoyl)-1-(4-methylpentyl)-1-(4-phenoxybutyl)piperidine bromide] |  |  | 48 to 72 h | 1 min | 48 to 72 h | 1 min |  |
| CCCCN1CCCC[C@H]1C(=O)Nc1c(C)cccc1C [Levobupivacaine Hydrochloride, reference compound] | 3 h |  |  |  |  |  | Duration/h ([2]; Drug Concentration 6.9 mmol/L, subcutaneous infiltration): 3 h; Duration/h ([2]; control at 2 mg/ml (6.9 mmol/L), 0.5 mL subcutaneous injection on the back): 3 h |
| CCCC[N+]1(CCCCNc2ccc(C)cc2)CCCC[C@H]1C(=O)Nc1c(C)cccc1C (stereo partly drawn) [Compound of Example 2, (2S)-1-Butyl-2-((2,6-dimethylphenyl)carbamoyl)-1-(4-(p-toluidino)butyl)piperidine bromide] | 48 to 72 h | 1 min | 72 to 96 h | 1 min |  |  |  |
| (2S)-1-Butyl-2-((4-fluorophenyl)carbamoyl)-1-(4-(m-tolyloxy)butyl)piperidine bromide [Compound of Example 22] | 48 to 72 h | 1 min | 48 to 72 h | 1 min |  |  |  |
| CCCC[N+]1(CCCCOc2ccc(C)cc2)CCCC[C@H]1C(=O)Nc1c(C)cccc1C (stereo partly drawn) [Compound of Example 31, (2S)-1-Butyl-2-((2,6-dimethylphenyl)carbamoyl)-1-(4-(p-tolyloxy)butyl)piperidine bromide] | 24 to 30 h | 1 min | 48 to 72 h | 1 min |  |  |  |
| CCCC[N+]1(CCCCCOc2ccccc2)CCCC[C@H]1C(=O)Nc1c(C)cccc1C (stereo partly drawn) [Compound of Example 14, (2S)-1-Butyl-2-((2,6-dimethylphenyl)carbamoyl)-1-(5-(phenoxy)pentyl)piperidine bromide] |  |  | 48 to 72 h | 2 min | 24 to 48 h | 2 min |  |
| CCCC[N+]1(CCCCOc2cccc(C#N)c2)CCCC[C@H]1C(=O)Nc1c(C)cccc1C (stereo partly drawn) [Compound of Example 27, (2S)-1-Butyl-1-(4-(3-cyanophenoxy)butyl)-2-((2,6-dimethylphenyl)carbamoyl)piperidine bromide] | 24 to 48 h | 1 min | 48 to 72 h | 1 min |  |  |  |
| CCCC[N+]1(CCCCOc2cccc(C)c2)CCCC[C@H]1C(=O)Nc1c(CC)cccc1CC (stereo partly drawn) [Compound of Example 42, (2S)-1-Butyl-2-((2,6-diethylphenyl)carbamoyl)-1-(4-(m-tolyloxy)butyl)piperidine bromide] |  |  |  |  | 2 to 24 h | 2 min |  |
| CCCC[N+]1(CCCCOc2cc(C)ccc2C(C)C)CCCC[C@H]1C(=O)Nc1c(C)cccc1C (stereo partly drawn) [Compound of Example 23, (2S)-1-Butyl-2-((2,6-dimethylphenyl)carbamoyl)-1-(4-(2-isopropyl-5-methylphenoxy)butyl) piperidine bromide] | 48 to 72 h | 1 min |  |  |  |  |  |
| CCCC[N+]1(CCCCOc2ccc(F)cc2)CCCC[C@H]1C(=O)Nc1c(C)cccc1C (stereo partly drawn) [Compound of Example 24, (2S)-1-Butyl-2-((2,6-dimethylphenyl)carbamoyl)-1-(4-(4-fluorophenoxy)butyl)piperidine bromide] |  | 1 min | 48 to 72 h | 1 min |  |  |  |
| CCCC[N+]1(CCCCOc2cccc(C)c2)CCCC[C@@H]1C(=O)Nc1c(C)cccc1C.[Cl-] (stereo partly drawn) [Compound of Example 29, (2R)-1-Butyl-2-((2,6-dimethylphenyl)carbamoyl)-1-(4-(m-tolyloxy)butyl)piperidine chloride] | 24 to 30 h | 1 min |  |  |  |  |  |
| CCCC[N+]1(CCCOc2cccc(C)c2)CCCC[C@H]1C(=O)Nc1c(C)cccc1C (stereo partly drawn) [Compound of Example 35, (2S)-1-Butyl-2-((2,6-dimethylphenyl)carbamoyl)-1-(3-(m-tolyloxy)propyl)piperidine bromide] | 0 h | No effect observed |  |  |  |  |  |
| CCCC[N+]1(CCOCCOc2ccccc2)CCCC[C@H]1C(=O)Nc1c(C)cccc1C (stereo partly drawn) [Comparative Example 1, (2S)-1-Butyl-2-((2,6-dimethylphenyl)carbamoyl)-1-(2-(2-phenoxyethoxy)ethyl)piperidine bromide, reference compound] |  |  |  |  | 1 (the rat died 4 h | 2 min | the rat died, time after administration ([1]; 2 mg/ml, 5 ml/kg, single injection near the sciatic nerve): 1 (the rat died 4 h |
| CCCC[N+]1(CCCCOc2cccc(C)c2)CCCC[C@H]1C(=O)Nc1ccccc1C (stereo partly drawn) [Compound of Example 41, (2S)-1-Butyl-2-(o-tolylcarbamoyl)-1-(4-(m-tolyloxy)butyl)piperidinebromide] |  |  |  |  | 2 to 24 h | 2 min |  |
| CCCC[N+]1(CCCCOc2ccc3cc(C(C)=O)ccc3c2)CCCC[C@H]1C(=O)Nc1c(C)cccc1C (stereo partly drawn) [Compound of Example 43, (2S)-1-(4-((6-acetylnaphth-2-yl)oxy)butyl)-1-butyl-2-((2,6-dimethylphenyl)carbamoyl) piperidine bromide] | 48 to 72 h | 1 min |  |  |  |  |  |
| CCCC[N+]1(CCCCNc2c(C)cc(C)cc2C)CCCC[C@H]1C(=O)Nc1c(C)cccc1C (stereo partly drawn) [Compound of Example 19, (2S)-1-Butyl-2-((2,6-dimethylphenyl)carbamoyl)-1-(4-(symmetricaltrimethylamino)butyl)piperidine bromide] | 2 to 18 h | 2 min |  |  |  |  |  |
| CCCC[N+]1(CCCOc2ccccc2)CCCC[C@H]1C(=O)Nc1c(C)cccc1C (stereo partly drawn) [Compound of Example 34, (2S)-1-Butyl-2-((2,6-dimethylphenyl)carbamoyl)-1-(3-phenoxypropyl)piperidine bromide] |  |  |  |  | 0 h | No effect observed |  |
| CCCC[N+]1(CCCCNc2ccc(Cl)cc2)CCCC[C@H]1C(=O)Nc1c(C)cccc1C (stereo partly drawn) [Compound of Example 20, (2S)-1-Butyl-1-(4-((4-chlorophenyl)amino)butyl)-2-((2,6-dimethylphenyl)carbamoyl)piperidine bromide] |  |  |  |  | 24 to 48 h | 1 min |  |
| Cc1cccc(C)c1NC(=O)[C@@H]1CCCC[N+]1(CCCCOc1ccccc1)CC(C)C (stereo partly drawn) [Compound of Example 37, (2S)-1-(Isobutylmethyl)-2-((2,6-dimethylphenyl)carbamoyl)-1-(4-phenoxybutyl)piperidine bromide] |  |  |  |  | 2 to 18 h | 2 min |  |
| CCCC[N+]1(CCCCNc2ccc(F)c(F)c2)CCCC[C@H]1C(=O)Nc1c(C)cccc1C.[Br-] (stereo partly drawn) [Compound of Example 21, (2S)-1-Butyl-1-(4-((3,4-difluorophenyl)amino)butyl)-2-((2,6-dimethylphenyl)carbamoyl) piperidine bromide] | 19 to 24 h | 1 min |  |  |  |  |  |
